According to ChEMBL document CHEMBL4742387, “Condensed tricyclic compounds as protein kinase inhibitors” (2018):
Activity calls are given as the source filed them. The calls are words filed in the database; no cut-off is given here.

Columns and labels:
SK-MEL19 [1] = test: Synergistic antiproliferative activity against human SK-MEL19 cells assessed as reduction in cell proliferation by measuring combination index in presence of Crizotinib by MTT assay; assay type: functional
HCT-116 [2] = test: Synergistic antiproliferative activity against human HCT-116 cells assessed as reduction in cell proliferation by measuring combination index in presence of taxol by MTT assay; assay type: functional
SW-620 [3] = test: Synergistic antiproliferative activity against human SW-620 cells assessed as reduction in cell proliferation by measuring combination index in presence of Crizotinib by MTT assay; assay type: functional
Mus musculus [4] = test: Inhibition of CDK8 in athymic nude mouse xenografted with human SW-620 cells assessed as reduction in STAT1 S727 phosphorylation 5 mg/kg, po administered as single dose after 1 hr by Western blot analysis; assay type: functional, organism-based
BXPC-3 [5] = test: Antiproliferative activity against human BXPC-3 cells assessed as reduction in cell proliferation by CellTiter-Glo luminescent cell viability assay; assay type: functional
SW-620 [6] = test: Induction of apoptosis in human SW-620 cells at 0.5 to 5 uM incubated for 24 hrs by propidium iodide staining based assay; assay type: functional, cell-based; details: dose 0.5-5 µM
DU-145 [7] = test: Synergistic antiproliferative activity against human DU-145 cells assessed as reduction in cell proliferation by measuring combination index in presence of crizotinib by MTT assay; assay type: functional
Mus musculus [8] = test: Inhibition of CDK8 in athymic nude mouse xenografted with human SW-620 cells assessed as reduction in STAT1 S727 phosphorylation 5 mg/kg, po administered as single dose after 4 hrs by Western blot analysis; assay type: functional, organism-based
MDA-MB-231 [9] = test: Antiproliferative activity against human MDA-MB-231 cells assessed as reduction in cell proliferation by CellTiter-Glo luminescent cell viability assay; assay type: functional; details: Homo sapiens, MDA-MB-231
SW-620 [10] = test: Synergistic antiproliferative activity against human SW-620 cells assessed as reduction in cell proliferation by measuring combination index in presence of oxaliplatin by MTT assay; assay type: functional
BXPC-3 [11] = test: Synergistic antiproliferative activity against human BXPC-3 cells assessed as reduction in cell proliferation by measuring combination index in presence of Elesclomol by MTT assay; assay type: functional
SK-MEL19 [12] = test: Antiproliferative activity against human SK-MEL19 cells assessed as reduction in cell proliferation by CellTiter-Glo luminescent cell viability assay; assay type: functional
A549 [13] = test: Synergistic antiproliferative activity against human A549 cells assessed as reduction in cell proliferation by measuring combination index in presence of Elesclomol by MTT assay; assay type: functional
SW-620 [14] = test: Induction of cell cycle arrest in human SW-620 cells assessed as accumulation at G2M phase at 0.5 to 5 uM incubated for 24 hrs by propidium iodide staining based assay; assay type: functional; details: dose 0.5-5 µM
DU-145 [15] = test: Synergistic antiproliferative activity against human DU-145 cells assessed as reduction in cell proliferation by measuring combination index in presence of Ali-sertib by MTT assay; assay type: functional
[16] = target: Cyclin-dependent kinase 8 (Homo sapiens, UniProt P49336); test: Inhibition of CDK8 in human SW-620 cells assessed as reduction in STAT1 S727 phosphorylation pre-incubated for 1 hr before IFNgamma stimulation for 3 hrs by Western blot analysis; assay type: cell-based
SK-MEL19 [17] = test: Synergistic antiproliferative activity against human SK-MEL19 cells assessed as reduction in cell proliferation by measuring combination index in presence of Elesclomol by MTT assay; assay type: functional
[18] = target: T1, Serine/threonine-protein kinase haspin (Homo sapiens, UniProt Q8TF76); test: Inhibition of haspin in human SW620 cells assessed as reduction in IFNgamma-induced H3T3 phosphorylation pre-incubated for 1 hr before IFNgamma stimulation for 3 hrs by Western blot analysis; assay type: cell-based, SW-620
T1 sequence (Q8TF76 whole entry): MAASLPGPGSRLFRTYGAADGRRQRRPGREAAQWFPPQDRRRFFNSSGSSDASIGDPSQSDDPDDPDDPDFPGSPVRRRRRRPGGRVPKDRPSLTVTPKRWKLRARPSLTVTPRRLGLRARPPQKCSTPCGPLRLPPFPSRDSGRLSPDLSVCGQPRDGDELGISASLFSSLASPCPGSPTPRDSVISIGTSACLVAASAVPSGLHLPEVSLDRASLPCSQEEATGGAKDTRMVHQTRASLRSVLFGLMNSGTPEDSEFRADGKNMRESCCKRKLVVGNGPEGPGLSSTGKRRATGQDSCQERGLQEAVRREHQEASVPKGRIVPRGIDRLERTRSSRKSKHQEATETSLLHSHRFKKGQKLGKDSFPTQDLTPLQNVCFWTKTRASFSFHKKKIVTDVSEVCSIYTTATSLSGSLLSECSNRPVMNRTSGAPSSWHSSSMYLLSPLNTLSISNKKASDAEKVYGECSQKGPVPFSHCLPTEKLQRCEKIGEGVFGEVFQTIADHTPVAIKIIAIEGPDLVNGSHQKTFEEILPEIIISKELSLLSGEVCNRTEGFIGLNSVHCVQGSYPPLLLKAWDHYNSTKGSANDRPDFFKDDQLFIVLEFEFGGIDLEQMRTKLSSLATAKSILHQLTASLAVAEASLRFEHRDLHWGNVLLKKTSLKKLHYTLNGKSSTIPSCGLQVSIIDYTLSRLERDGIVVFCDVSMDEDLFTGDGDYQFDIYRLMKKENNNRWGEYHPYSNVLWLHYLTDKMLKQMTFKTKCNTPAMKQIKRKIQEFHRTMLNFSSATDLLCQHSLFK

MDA-MB-231 [19] = test: Synergistic antiproliferative activity against human MDA-MB-231 cells assessed as reduction in cell proliferation by measuring combination index in presence of Elesclomol by MTT assay; assay type: functional
[20] = target: T2, Serine/threonine-protein kinase haspin (Homo sapiens) (UniProt Q8TF76); test: Inhibition of haspin in synchronized human SW620 cells assessed as reduction in IFNgamma-induced H3T3 phosphorylation pre-incubated for 1 hr before IFNgamma stimulation for 3 hrs by Western blot analysis; assay type: cell-based; details: SW-620, time 4.0 hrs
T2 sequence (whole entry): T1 sequence (Q8TF76 whole entry)

HCT-116 [21] = test: Synergistic antiproliferative activity against human HCT-116 cells assessed as reduction in cell proliferation by measuring combination index in presence of crizotinib by MTT assay; assay type: functional
SW-620 [22] = test: Inhibition of colony formation of human SW-620 cells incubated for 11 days (Every 3 days medium is changed by fresh medium and compounds were added freshly) by crystal violet staining based assay; assay type: functional, cell-based
HCT-116 [23] = test: Antiproliferative activity against human HCT-116 cells assessed as reduction in cell proliferation by CellTiter-Glo luminescent cell viability assay; assay type: functional
DU-145 [24] = test: Antiproliferative activity against human DU-145 cells assessed as reduction in cell proliferation by CellTiter-Glo luminescent cell viability assay; assay type: functional
HCT-116 [25] = test: Synergistic antiproliferative activity against human HCT-116 cells assessed as reduction in cell proliferation by measuring combination index in presence of Ali-sertib by MTT assay; assay type: functional
MOLM-13 = test: Antiproliferative activity against human MOLM-13 cells assessed as reduction in cell proliferation by CellTiter-Glo luminescent cell viability assay; assay type: functional; details: Homo sapiens, MOLM-13
DU-145 [26] = test: Synergistic antiproliferative activity against human DU-145 cells assessed as reduction in cell proliferation by measuring combination index in presence of Taxol by MTT assay; assay type: functional
BXPC-3 [27] = test: Synergistic antiproliferative activity against human BXPC-3 cells assessed as reduction in cell proliferation by measuring combination index in presence of crizotinib by MTT assay; assay type: functional
SW-620 [28] = test: Synergistic antiproliferative activity against human SW-620 cells assessed as reduction in cell proliferation by measuring combination index in presence of Elesclomol by MTT assay; assay type: functional
SW-620 [29] = test: Synergistic antiproliferative activity against human SW-620 cells assessed as reduction in cell proliferation by measuring combination index in presence of Ali-sertib by MTT assay; assay type: functional
SW-620 [30] = test: Antiproliferative activity against human SW-620 cells assessed as reduction in cell proliferation by CellTiter-Glo luminescent cell viability assay; assay type: functional; details: Homo sapiens, SW-620
SW-620 [31] = test: Synergistic antiproliferative activity against human SW-620 cells assessed as reduction in cell proliferation by measuring combination index in presence of taxol by MTT assay; assay type: functional
A549 [32] = test: Antiproliferative activity against human A549 cells assessed as reduction in cell proliferation by CellTiter-Glo luminescent cell viability assay; assay type: functional
SW-620 [33] = test: Synergistic antiproliferative activity against human SW-620 cells assessed as reduction in cell proliferation by measuring combination index in presence of ABT-751 by MTT assay; assay type: functional
MV4-11 = test: Antiproliferative activity against human MV4-11 cells assessed as reduction in cell proliferation by CellTiter-Glo luminescent cell viability assay; assay type: functional; details: Homo sapiens, MV4-11

Chain of Cyclin-dependent kinase 8 (P49336 whole entry): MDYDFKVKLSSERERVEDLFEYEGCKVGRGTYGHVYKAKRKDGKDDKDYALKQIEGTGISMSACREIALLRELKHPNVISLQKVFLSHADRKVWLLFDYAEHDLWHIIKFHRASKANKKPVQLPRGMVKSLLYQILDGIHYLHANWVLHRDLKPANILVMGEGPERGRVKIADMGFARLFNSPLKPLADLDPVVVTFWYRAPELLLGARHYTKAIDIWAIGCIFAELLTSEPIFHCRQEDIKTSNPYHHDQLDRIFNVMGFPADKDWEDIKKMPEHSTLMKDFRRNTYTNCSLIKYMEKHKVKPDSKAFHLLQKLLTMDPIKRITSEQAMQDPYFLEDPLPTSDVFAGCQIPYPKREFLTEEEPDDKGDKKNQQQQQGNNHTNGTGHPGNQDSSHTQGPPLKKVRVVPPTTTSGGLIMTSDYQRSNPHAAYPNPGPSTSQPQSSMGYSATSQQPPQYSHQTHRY

In the case of `CCn1c(C(N)=O)cc2c1-c1ccncc1OC2(C)C`, the CI (SK-MEL19 [1]) is reported as 0.55, the CI (HCT-116 [2]) is reported as 0.63 and the CI (SW-620 [3]) is reported as 0.65. For the same compound, the inhibition (Mus musculus [4]) was “Active”, the GI50 (BXPC-3 [5]) was 5 µM and the Activity (SW-620 [6]) was “Dose-dependent effect”. The CI (DU-145 [7]) was 0.44, the inhibition (Mus musculus [8]) was “Active” and the GI50 (MDA-MB-231 [9]) was 3.5 µM. It also gave a CI (SW-620 [10]) of 0.53, a CI (BXPC-3 [11]) of 0.25 and a GI50 (SK-MEL19 [12]) of 1.25 µM. For the same compound, the CI (A549 [13]) was 0.63, the Activity (SW-620 [14]) was “Dose-dependent effect” and the CI (DU-145 [15]) was 0.65. The IC50 [16] was 0.0015 µM, the CI (SK-MEL19 [17]) was 0.49 and the IC50 [18] was 0.0016 µM. The CI (MDA-MB-231 [19]) was 0.59, the INH [20] was 1.5 10^-8mol/L and the CI (HCT-116 [21]) was 0.58. For the same compound, the EC50 (SW-620 [22]) was 0.051 µM, the GI50 (HCT-116 [23]) was 5 µM and the GI50 (DU-145 [24]) was 5 µM. For the same compound, the CI (HCT-116 [25]) was 0.64, the GI50 (MOLM-13) was 0.349 µM and the CI (DU-145 [26]) was 0.21. For the same compound, the CI (BXPC-3 [27]) was 0.72, the CI (SW-620 [28]) was 0.05 and the CI (SW-620 [29]) was 0.52. For the same compound, the GI50 (SW-620 [30]) was 3.39 µM, the CI (SW-620 [31]) was 0.28 and the GI50 (A549 [32]) was 5 µM. For the same compound, the CI (SW-620 [33]) was 0.18 and the GI50 (MV4-11) was 0.115 µM.
